The source made the active and inactive calls. The calls are words filed in the database; no cut-off is given here. Where only a bound is given, the exact number is not on record here.

In ChEMBL document CHEMBL1275326, “Synthesis and identification of a new class of antileukemic agents containing 2-(arylcarboxamide)-(S)-6-amino-4,5,6,7-tetrahydrobenzo[d]thiazole” (Eur J Med Chem, 2010) one finds IC50 and Activity data, which are given here for 8 compounds.

Series [1] deals with K562. Kind of series: Cytotoxicity against human K562 cells after 48 to 72 hrs by MTT assay. It counts as functional, cell-based. Background: Tetrazolium dyes change colour on reduction, which living cells bring about.
The subject of series [2] is CCRF-CEM. In words: Cytotoxicity against human CEM cells after 48 to 72 hrs by MTT assay. It counts as functional, cell-based.
The test system of series [3] is K562. In words: Cell cycle arrest in human K562 cells assessed as accumulation at G0/G1 phase at 10 uM after 48 hrs using propidium iodide staining by FACS analysis. In kind it is functional, cell-based. In general terms: Flow cytometry measures light scatter and fluorescence of single cells or particles in a stream.
Series [4] deals with K562. In words: Cytotoxicity against human K562 cells after 24 hrs by LDH release assay. In kind it is functional, cell-based. Background: Release of lactate dehydrogenase indicates damage to the cell membrane.
Series [5] deals with K562. Kind of series: Cytotoxicity against human K562 cells at 10 to 100 uM after 24 hrs by trypan blue exclusion assay. In kind it is functional, cell-based.
Series [6] has as its system CCRF-CEM. Kind of series: Cytotoxicity against human CEM cells at 10 to 100 uM by MTT assay. It counts as functional, cell-based. The conditions noted are these: TDE = time-dependent effect.
In series [7] the test system is K562. Kind of series: Cell cycle arrest in human K562 cells assessed as accumulation at S phase at 10 uM after 48 hrs using propidium iodide staining by FACS analysis. In kind it is functional, cell-based.
Series [8] deals with K562. Kind of series: Cytotoxicity against human K562 cells at 10 to 100 uM by MTT assay. In kind it is functional, cell-based. The settings on record: TDE = time-dependent effect.
Series [9] relates to K562. Kind of series: Cell cycle arrest in human K562 cells assessed as accumulation at G1 phase at 10 uM after 48 hrs using propidium iodide staining by FACS analysis. In kind it is functional, cell-based.
For series [10], the system named is K562. In words: Cell cycle arrest in human K562 cells assessed as accumulation at G2/M phase at 10 uM after 48 hrs using propidium iodide staining by FACS analysis. In kind it is functional, cell-based.
Series [11] is described as follows: Cytotoxicity against human HEK293T cells at 1 to 5 uM after 48 to 72 hrs by MTT assay. It counts as cell-based. The conditions noted are these: hek-293t.

For `N[C@H]1CCc2nc(NC(=O)c3ccccc3F)sc2C1`, the half-maximal inhibitory concentration (IC50) came to 57.2 µM with K562 [1] and 56.6 µM in the series on CCRF-CEM [2].

Regarding `N[C@H]1CCc2nc(NC(=O)c3ccc(Cl)cc3Cl)sc2C1`, the IC50 with K562 [1] is 7.72 µM; in the series with CCRF-CEM [2], 8.72 µM.

For the compound `COc1cccc(C(=O)Nc2nc3c(s2)C[C@@H](N)CC3)c1`, the IC50 with K562 [1] came to 17.9 µM; with CCRF-CEM [2], 13.8 µM.

As to `N[C@H]1CCc2nc(NC(=O)c3cc([N+](=O)[O-])cc([N+](=O)[O-])c3)sc2C1`, the IC50 with K562 [1] worked out at 8.16 µM; with CCRF-CEM [2], 9.02 µM.

Take `N[C@H]1CCc2nc(NC(=O)c3ccccc3)sc2C1`: the figures for the IC50 with K562 [1] and with CCRF-CEM [2] were 65.7 µM and 61.4 µM, respectively.

Take `CC(C)(C)c1ccc(C(=O)Nc2nc3c(s2)C[C@@H](N)CC3)cc1.Cl`: the outcome in the series on K562 [3], in the series with K562 [7], with K562 [9] and in the series on K562 [10] was inactive. The Activity entry in the series on K562 [4] was “Dose-dependent effect”; in the series on CCRF-CEM [6] it was “tde”; with K562 [8] it was “tde”; in the series on K562 [1], “Dose-dependent effect”; with CCRF-CEM [2], “Dose-dependent effect”; in [11], “Non-toxic”. In the series on K562 [5], the outcome was Active. For the same compound, the IC50 in the series with K562 [1] and in the series with CCRF-CEM [2] was 4.52 µM in each case.

Consider `N[C@H]1CCc2nc(NC(=O)c3cccc(Br)c3)sc2C1`, for which the IC50 stood at 21 µM in the series with K562 [1] and 22.8 µM with CCRF-CEM [2].

In the case of `N[C@H]1CCc2nc(NC(=O)c3c(F)cccc3F)sc2C1`, the IC50 was above 100 µM with K562 [1] and 81.2 µM in the series on CCRF-CEM [2].

The term IC50 denotes the concentration that gives 50% inhibition. Read a low IC50 as greater potency in that assay.
